Counter-ions that a name gives are not always drawn.
Columns and labels:
human 5-HT7 receptor = human 5-HT7 receptor (Homo sapiens, UniProt P34969); assay: Binding test of 5-HT7 receptor; details: [3H]5-HT, human 5-HT7 expressing CHO cell membrane
Experimental: (2) Binding Test of 5-HT7 Receptor
(i) Preparation of Membrane Preparation
CHO cell was used as the gene transferring cell.
Cultured CHO cells expressing human 5-HT7 receptor were washed with PBS (−). The cells were scraped in the presence of PBS(−), and the cells were recovered by centrifugation (1,000 rpm, 10 min, 4° C.). They were homogenized using Polytron (PTA 10-TS) in the presence of 5 mM Tris-HCl (pH 7.4) buffer and centrifuged (40,000×g, 10 min, 4° C.). They were suspended using a homogenizer in the presence of 50 mM Tris-HCl (pH 7.4) buffer. They were subjected to centrifugation (40,000×g, 10 min, 4° C.), suspended in 50 mM Tris-HCl (pH 7.4) and stored at −80° C.
(ii) Receptor Binding Test
The compound was dissolved in 100% DMSO and diluted to respective concentrations. Nonspecific binding was defined as the binding quantity in the presence of 10 μM metergoline, and the result of subtracting the nonspecific binding quantity from the total binding quantity was defined as the specific binding quantity. This was mixed with 4 ml of 50 mM Tris-HCl buffer (pH 7.4) and filtered under a reduced pressure using a GF/B glass filter, and the filter was washed (4 ml×3) with the same buffer. The glass filter was soaked in 5 ml of a liquid scintillator (Aquasol-2) and the radioactivity was measured using a liquid scintillation counter.

[1] = tested on: protein leaked from the dural blood vessel caused by 5-HT; assay: Preventive effect in guinea pig migraine model (leaked protein); assay type: in vivo; details: for leakage of the protein: 10 mg/kg or 30 mg/kg of oral administration
Experimental: (4) Preventive Effect in Guinea Pig Migraine Model
In this test system, migraine preventive effect was evaluated by measuring this leaked protein in the presence of a compound to be tested, and this was carried out by partially modifying the method described in Rachel A. Spokes and Vicki C. Middlefell, European Journal of Pharmacology (1995) 281, 75-79.
Hartley male guinea pig (250-350 g) was anesthetized by peritoneal administration (i.p.) of urethane (1.5 g/kg). By applying simple canulation to a saphena, 50 mg/kg of a fluorescent protein (FITC-BSA) was intravenously administered (i.v.) and 5 minutes thereafter, physiological saline or 1 μM of 5-HT was intravenously administered. By carrying out perfusion with physiological saline 15 minutes thereafter, blood was washed out. […] By detaching the skull, dura mater was took out and incubated at 37° C. for 16 hours in an Eppendorf tube in the presence of physiological saline of pH 11. Centrifugation was carried out, and the supernatant was dispensed into a plate. Fluorescence intensity was measured using a fluorescence plate reader (excitation wavelength 485 nm, […] 530 nm). By measuring dura mater weight, fluorescence intensity per mg dural protein was calculated.
Values of the fluorescence intensity measured at the time of the administration of each compound and at the time of no administration are shown in FIG. 1 to FIG. 4. […] The control indicates fluorescence intensity at the time of no addition of 5-HT, namely the reference value.

5-HT4 receptor = 5-HT4 receptor (UniProt O70528); assay: Affinity for other receptors: 5-HT4; assay type: binding
5-HT6 receptor = 5-HT6 receptor (UniProt P50406); assay: Affinity for other receptors: 5-HT6; assay type: binding
α1 receptor = assay: Affinity for other receptors: α1; assay type: binding
5-HT2B receptor = details: against 5-HT1A, 5-HT1B, 5-HT2A, 5-HT2C, 5-HT3, 5-HT6, 5-HT7, α1, M1 and D2 receptors; cited from earlier work

Chain of human 5-HT7 receptor (P34969 1-432 limits assumed): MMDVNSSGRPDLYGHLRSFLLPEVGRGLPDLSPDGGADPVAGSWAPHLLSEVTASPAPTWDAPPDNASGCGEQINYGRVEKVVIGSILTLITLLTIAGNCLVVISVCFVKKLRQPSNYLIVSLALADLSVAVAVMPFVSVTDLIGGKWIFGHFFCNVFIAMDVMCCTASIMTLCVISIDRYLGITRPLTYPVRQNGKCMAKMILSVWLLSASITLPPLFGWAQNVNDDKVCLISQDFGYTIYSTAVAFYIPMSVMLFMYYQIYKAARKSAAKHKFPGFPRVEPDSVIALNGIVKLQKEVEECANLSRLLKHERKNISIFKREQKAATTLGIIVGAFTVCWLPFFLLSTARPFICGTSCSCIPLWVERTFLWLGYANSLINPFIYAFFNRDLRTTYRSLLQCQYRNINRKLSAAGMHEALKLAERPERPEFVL

Ki (human 5-HT7 receptor) [nM] | SMILES | leakage of the protein [1] | also measured
0.4 to 310 | CC1(O)c2ccccc2-c2ccc(C(=O)N=C(N)N)cc21 (racemic) [Example 56, N-(diaminomethylene)-9-hydroxy-9-methyl-9H-fluorene-2-carboxamide] | – | –
0.4 to 310 | CC1(O)c2cc(C(=O)N=C(N)N)ccc2-c2c(F)cccc21 (racemic) [Example 77, N-(diaminomethylene)-5-fluoro-9-hydroxy-9-methyl-9H-fluorene-2-carboxamide] | – | –
0.4 to 310 | CC1(O)c2ccccc2-c2ccc(C(=O)N=C(N)N)cc21 (single isomer, unassigned) [Example 56a, N-(diaminomethylene)-9-hydroxy-9-methyl-9H-fluorene-2-carboxamide (optically active substance A)] | almost completely suppressed leakage of the protein | –
– | NC(N)=NC(=O)c1ccc2c(c1)C1(CCCO1)c1ccccc1-2 (single isomer, unassigned) [Example 60a, N-(diaminomethylene)-4′,5′-dihydro-3′H-spiro[fluorene-9,2′-furan]-2-carboxamide (optically active substance A)] | almost completely suppressed leakage of the protein | –
– | NC(N)=NC(=O)c1ccc2c(c1)C1(CCCO1)c1ccccc1-2 (single isomer, unassigned) [Example 60b, N-(diaminomethylene)-4′,5′-dihydro-3′H-spiro[fluorene-9,2′-furan]-2-carboxamide (optically active substance B)] | almost completely suppressed leakage of the protein | –
0.4 to 310 | CC1(O)c2cc(C(=O)N=C(N)N)ccc2-c2c(F)cccc21 (single isomer, unassigned) [Example 78a, N-(diaminomethylene)-5-fluoro-9-hydroxy-9-methyl-9H-fluorene-2-carboxamide (optically active substance A)] | – | –
– | CC1(O)c2cc(C(=O)N=C(N)N)ccc2-c2c(F)cccc21 (single isomer, unassigned) [Example 78b, N-(diaminomethylene)-5-fluoro-9-hydroxy-9-methyl-9H-fluorene-2-carboxamide (optically active substance B)] | almost completely suppressed leakage of the protein | –
– | Cl.NC(N)=NC(=O)c1ccc2c(c1)C(O)c1ccccc1-2 (stereo not shown) [Example 3, N-(diaminomethylene)-9-hydroxy-9H-fluorene-2-carboxamide hydrochloride] | – | IC50 (5-HT4 receptor): ≥ 1000 nM; IC50 (5-HT6 receptor): ≥ 1000 nM; IC50 (α1 receptor): ≥ 1000 nM; amount of the leaked protein ([1]; 3 mg/kg of intraperitoneal administration, FIG. 4): almost completely suppressed the amount of leaked protein
0.4 to 310 | CC(C)C1NC(=NC(=O)c2ccc3c(c2)C(O)c2ccccc2-3)NC1=O [Example 8, 9-hydroxy-N-[(2EZ,4S)-4-isopropyl-5-oxoimidazolin-2-ylidene-9H-fluorene-2-carboxamide hydrochloride] | – | –
0.4 to 310 | NC(N)=NC(=O)c1ccc2c(c1)C(O)c1c(Cl)cccc1-2 (stereo not shown) [Example 38, 8-chloro-N-(diaminomethylene)-9-hydroxy-9H-fluorene-2-carboxamide] | – | –
– | NC(N)=NC(=O)c1ccc2c(c1)C1(SCCS1)c1ccccc1-2 [Example 59] | almost completely suppressed leakage of the protein | –
0.4 to 310 | NC(N)=NC(=O)c1ccc2c(c1)C1(CC1)c1ccccc1-2 [Example 63, N-(diaminomethylene)spiro[cyclopropane-1,9′-fluorene]-2′-carboxamide] | – | –
0.4 to 310 | COC1(C)c2ccccc2-c2ccc(C(=O)N=C(N)N)cc21 (stereo not shown) [Example 71, N-(diaminomethylene)-9-methoxy-9-methyl-9H-fluorene-2-carboxamide] | – | –
0.4 to 310 | CCC1(OC)c2ccccc2-c2ccc(C(=O)N=C(N)N)cc21 (stereo not shown) [Example 72, N-(diaminomethylene)-9-ethyl-9-methoxy-9H-fluorene-2-carboxamide] | – | –
– | NC(N)=NC(=O)c1ccc2c(c1)C1(SCCS1)c1cccc(F)c1-2 [Example 85] | almost completely suppressed leakage of the protein | –
0.4 to 310 | COC1(C)c2cc(C(=O)N=C(N)N)ccc2-c2c(F)cccc21 (stereo not shown) [Example 87, N-(diaminomethylene)-5-fluoro-9-methoxy-9-methyl-9H-fluorene-2-carboxamide] | – | –
– | CC(C)c1cc(-c2ccc(F)c3ccccc23)nc(N)n1 [RS-127445, 2-amino-4-(4-fluoronaphth-1-yl)-6-isopropylpyrimidine, reference compound] | – | amount of the leaked protein ([1]; 3 mg/kg, intraperitoneal, FIG. 1): showed an effect to reduce amount of the leaked protein; amount of the leaked protein versus reference value ([1]; dose increased from 3 mg/kg to 10 mg/kg, intraperitoneal, FIG. 1): did not reduced to the reference value; 5-HT2B receptor selectivity (5-HT2B receptor): 1000 times
– | CC1CCN(CC[C@H]2CCCN2S(=O)(=O)c2cccc(O)c2)CC1 [SB-269970, (R)-3-(2-(2-(4-methylpiperidin-1-yl)ethyl)pyrrolidine-1-sulfonyl)phenol, reference compound] | – | amount of the leaked protein versus reference value ([1]; dose increased from 3 mg/kg to 30 mg/kg, intraperitoneal, FIG. 2): did not reduced the amount of leaked protein to the reference value; amount of the leaked protein ([1]; from 10 mg/kg, intraperitoneal, FIG. 2): showed the effect

Reference: US20080200551A1, “Flourene Derivative” (priority 2004, published 2008)
